# Assay results: patent US20080160520A1, “Methods and Composition for Diagnosing and Treating Cancer” (priority 2006, published 2008)
# Where two headings read alike, the source gives them in different places. Where a SMILES comes first, the peptide text is derived from it. The star is where a group is joined. Cbz = O=C(OCc1ccccc1)*
# Experiments:
# Assay type in all cases: cell-based, S. cerevisiae
# aneuploid yeast strains = conditions: for colony formation of aneuploids on medium containing the agent: compared with wild-type cells, FIG. 13B, E, I
# Source text: To determine whether the synthesis of proteins from the additional chromosomes and their presence in the cell represents an increased burden on the cell's protein production machinery, the ability of aneuploid strains to grow under conditions that interfere with transcription, protein synthesis and protein folding was examined.
# [1] = test system: cdc28-4 and cdc23-1 mutants; assay: Sensitivity of slow-proliferating cdc28-4 and cdc23-1 mutants to protein synthesis inhibitors; conditions: mutants severely impaired in cell division even at 23° C.; FIGS. 4C and D
# YAC-bearing strains = conditions: YACs with human or mouse DNA inserts; FIG. 5B
# Protocol: Strains (from the top): A11311, A16850, A17392, A17393, A17394, A13628, A17396, A17397, A16851.
# The phenotypes shared by aneuploids might result from the mere presence of additional DNA or from the RNAs and proteins synthesized from these chromosomes. Thus, the effects of seven yeast artificial chromosomes (YACs) containing human or mouse DNA inserts ranging from approximately 350 kb to 1.6 MB in size were tested (Table 3).
# The other phenotypes observed in aneuploids were not shared by the YAC-bearing strains. […] Progression through other cell cycle stages was not affected either as judged by DNA content analysis (FIGS. 5, C and D).
smiles,measurement,setting,value
C[C@@H]1C[C@@H]([C@H](O)CC2CC(=O)NC(=O)C2)C(=O)[C@@H](C)C1 [cycloheximide],proliferation of aneuploid strains,"aneuploid yeast strains; 0.05 μg/ml, FIG. 4C",proliferation of most was impaired
same,proliferation of all aneuploid strains,"aneuploid yeast strains; 0.1 μg/ml and 0.2 μg/ml, FIG. 4C",decreased proliferation
same,proliferation of all aneuploid strains,"aneuploid yeast strains; all aneuploid strains, FIG. 4C",hampered
same,sensitivity of cdc28-4 and cdc23-1 mutants,[1],did not exhibit increased sensitivity
same,sensitivity of YAC-bearing strains,YAC-bearing strains,did not exhibit increased sensitivity
CC(C)C[C@@H](C=O)NC(=O)[C@H](CC(C)C)NC(=O)[C@H](CC(C)C)NC(=O)OCc1ccccc1 [MG 132] (Cbz-Leu-Leu-Leu-aldehyde),proliferation of aneuploid strains (ability to form colonies on plates containing the drug),"aneuploid yeast strains; disomes IV, XII, XIII, XIV and XVI, PDR5 deleted, concentrations that wild-type cells grow at, FIG. 4F",inhibited
CC[C@H]1/C=C/C=C/C[C@@H](C)[C@H](O)[C@@](C)(O)C(=O)[C@@H](C)[C@H](O)[C@@H](C)C(=O)[C@@H](C)[C@H](O)[C@@H](C)/C=C/C(=O)O[C@@H]2[C@H](C)[C@H](CC1)O[C@]1(CC[C@H](C)[C@H](C[C@@H](C)O)O1)[C@H]2C [oligomycin],sensitivity of aneuploid strains,"aneuploid yeast strains; increasing concentrations, FIG. 13I",did not exhibit increased sensitivity
OO [hydrogen peroxide],proliferation of aneuploids in the presence of the agent,"aneuploid yeast strains; 1 mM, FIG. 13D, G",None of the aneuploids showed altered proliferation
CC(=O)Nc1c2sscc-2n(C)c1=O [Thiolutin],proliferation of aneuploids,"aneuploid yeast strains; high concentration 20 μg/ml, all aneuploids except disomes I, X, XIV, FIG. 4B",inhibited
same,proliferation of aneuploids,"aneuploid yeast strains; low concentrations 5 μg/ml to 15 μg/ml, FIG. 13H",proliferation of only a subset of strains was impaired
same,sensitivity of YAC-bearing strains,YAC-bearing strains,did not exhibit increased sensitivity
CCCCNC(=O)n1c(NC(=O)OC)nc2ccccc21 [benomyl],sensitivity of aneuploid strains,"aneuploid yeast strains; 10 and 20 μg/ml, FIG. 13F",About half of the aneuploid strains analyzed exhibited increased sensitivity
NC(=O)NO [hydroxyurea],colony formation of aneuploids on medium containing the agent,aneuploid yeast strains,formed colonies as well as wild-type cells
O=c1cn[nH]c(=O)[nH]1 [6-Azauracil],colony formation of aneuploids on medium containing the agent,aneuploid yeast strains,formed colonies as well as wild-type cells
O=C(O)C1CCN1 (stereo not drawn) [azetidine 2-carboxylic acid],colony formation of aneuploids on medium containing the agent,aneuploid yeast strains,formed colonies as well as wild-type cells
